Measured values as given in ChEMBL document CHEMBL5058642, “Data for DCP probe TP-051” (2022).

Experiments:
[1] = molecular target: T1, D(3) dopamine receptor (Homo sapiens, UniProt P35462); assay: GPCRScan assay: inhibition of D3; parameters: radioligand conc. used [nm] 0.5 – 1.8, parental cells HEKT
[2] = molecular target: Beta-2 adrenergic receptor (Homo sapiens, UniProt P07550); assay: GPCRScan assay: inhibition of Beta2; parameters: radioligand conc. used [nm] 0.5 - 1.0, parental cells HEK Flp-In
[3] = molecular target: T2, GABA-A receptor; anion channel (Rattus norvegicus) (UniProt O09028+P15431+P18506+P18508+P19969+P20236+P23574+P23576+P28471+P28473+P30191+P62813+P63079+P63138+Q91ZM7+Q9ES14); assay: Inhibition of GABAA, Muscimol, Central at 10 µM in the Eurofins-Panlabs radioligand binding assay (Eurofins_assay_226500); format: protein-complex assay; conditions: Compound concentration 10.0 uM
[4] = molecular target: Glutamate receptor ionotropic, kainate (Rattus norvegicus) (UniProt P22756+Q01812+P42260+P42264+Q63273); assay: Inhibition of Glutamate, Kainate at 10 µM in the Eurofins-Panlabs radioligand binding assay (Eurofins_assay_232700); conditions: Compound concentration 10.0 uM
[5] = organism: Mus musculus; assay: Inhibition of Phorbol Ester at 10 µM in the Eurofins-Panlabs radioligand binding assay (Eurofins_assay_264500); parameters: ligand concentration 3 nM; conditions: Compound concentration 10.0 uM
[6] = molecular target: Platelet-activating factor receptor (Homo sapiens) (UniProt P25105); assay: Inhibition of Platelet Activating Factor (PAF) at 10 µM in the Eurofins-Panlabs radioligand binding assay (Eurofins_assay_265010); conditions: Compound concentration 10.0 uM
Platelet-activating factor receptor (Homo sapiens), sequence (P25105 whole entry): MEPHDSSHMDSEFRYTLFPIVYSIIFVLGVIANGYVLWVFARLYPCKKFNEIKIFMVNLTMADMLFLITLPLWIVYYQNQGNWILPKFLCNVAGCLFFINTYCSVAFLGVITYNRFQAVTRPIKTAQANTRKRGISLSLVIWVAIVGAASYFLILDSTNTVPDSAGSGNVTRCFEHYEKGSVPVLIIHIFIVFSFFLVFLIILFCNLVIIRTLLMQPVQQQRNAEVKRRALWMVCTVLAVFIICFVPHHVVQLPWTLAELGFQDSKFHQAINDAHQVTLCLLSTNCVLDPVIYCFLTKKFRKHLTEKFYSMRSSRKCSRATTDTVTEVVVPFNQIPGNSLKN

[7] = molecular target: B2 bradykinin receptor (Homo sapiens) (UniProt P30411); assay: Bradykinin B2 Eurofins-Panlabs radioligand binding assay; conditions: Compound concentration 10.0 uM
[8] = molecular target: Prostaglandin G/H synthase 2 (Homo sapiens) (UniProt P35354); assay: Inhibition of Cyclooxygenase COX-2 at compound concentration of 10.0 uM in the Eurofins-Panlabs enzyme assay (Eurofins_assay_118010); parameters: substrate with concentration 0.3 uM Arachidonic acid, incubation time 15 min, incubation temperature 37 C; conditions: Compound concentration 10.0 uM
[9] = organism: Homo sapiens; assay: Inhibition of Phosphodiesterase PDE4 at compound concentration of 10.0 uM in the Eurofins-Panlabs enzyme assay (Eurofins_assay_154000); format: protein assay; parameters: substrate with concentration 1.01 uM [3 H]cAMP + cAMP, incubation time 20 min, incubation temperature 25 C; conditions: Compound concentration 10.0 uM
[10] = molecular target: Cholecystokinin receptor type A (Homo sapiens) (UniProt P32238); assay: Inhibition of Cholecystokinin CCK1 (CCKA) at 10 µM in the Eurofins-Panlabs radioligand binding assay (Eurofins_assay_218020); conditions: Compound concentration 10.0 uM
Cholecystokinin receptor type A (Homo sapiens), sequence (P32238 whole entry): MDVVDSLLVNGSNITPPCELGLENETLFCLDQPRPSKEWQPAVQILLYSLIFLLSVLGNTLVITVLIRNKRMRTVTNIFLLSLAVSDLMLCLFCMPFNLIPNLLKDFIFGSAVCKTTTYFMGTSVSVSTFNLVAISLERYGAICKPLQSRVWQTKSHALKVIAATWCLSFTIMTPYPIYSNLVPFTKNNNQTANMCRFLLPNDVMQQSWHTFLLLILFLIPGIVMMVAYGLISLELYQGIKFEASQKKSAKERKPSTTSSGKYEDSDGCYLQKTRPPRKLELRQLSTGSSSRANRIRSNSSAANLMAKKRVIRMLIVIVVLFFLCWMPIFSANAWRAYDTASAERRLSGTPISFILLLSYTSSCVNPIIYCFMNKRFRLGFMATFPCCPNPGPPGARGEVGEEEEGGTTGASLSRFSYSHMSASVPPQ

[11] = molecular target: Substance-K receptor (Homo sapiens) (UniProt P21452); assay: Inhibition of Tachykinin NK2 at 10 µM in the Eurofins-Panlabs radioligand binding assay (Eurofins_assay_255600); parameters: ligand concentration 0.5 nM; conditions: Compound concentration 10.0 uM
Substance-K receptor (Homo sapiens), sequence (P21452 whole entry): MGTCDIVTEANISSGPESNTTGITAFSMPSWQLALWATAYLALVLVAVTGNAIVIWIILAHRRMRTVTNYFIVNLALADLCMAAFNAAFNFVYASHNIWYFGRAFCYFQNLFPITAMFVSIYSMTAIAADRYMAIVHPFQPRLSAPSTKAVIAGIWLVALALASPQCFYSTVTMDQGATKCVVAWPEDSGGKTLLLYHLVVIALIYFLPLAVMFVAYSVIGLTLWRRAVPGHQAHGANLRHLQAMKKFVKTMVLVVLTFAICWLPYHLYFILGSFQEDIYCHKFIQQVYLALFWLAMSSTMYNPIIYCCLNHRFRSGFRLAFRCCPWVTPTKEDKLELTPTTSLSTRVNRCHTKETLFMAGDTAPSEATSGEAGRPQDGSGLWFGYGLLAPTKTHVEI

[12] = organism: Homo sapiens; assay: Somatostatin sst2 Eurofins-Panlabs radioligand binding assay; parameters: ligand concentration 0.03 nM; conditions: Compound concentration 10.0 uM
[13] = organism: Homo sapiens; assay: Estrogen ERbeta Eurofins-Panlabs radioligand binding assay; conditions: Compound concentration 10.0 uM
[14] = organism: Homo sapiens; assay: Prostanoid, Thromboxane A2 (TP) Eurofins-Panlabs radioligand binding assay; parameters: ligand concentration 5 nM, non-specific ligand with concentration 1 µM SQ-29548, incubation time 30 min, incubation temperature 25 °C; conditions: Compound concentration 10.0 uM
[15] = organism: Canis lupus familiaris; assay: ATPase, Na+/K+ Eurofins-Panlabs enzyme assay; conditions: Compound concentration 10.0 uM
[16] = molecular target: 3-hydroxy-3-methylglutaryl-coenzyme A reductase (Homo sapiens) (UniProt P04035); assay: HMG-CoA Reductase Eurofins-Panlabs enzyme assay; conditions: Rattus norvegicus; Compound concentration 10.0 uM
[17] = molecular target: Prothrombin (Homo sapiens) (UniProt P00734); assay: Peptidase, Thrombin Eurofins-Panlabs enzyme assay; parameters: substrate with concentration; conditions: Compound concentration 10.0 uM
[18] = molecular target: Ca2+/calmodulin-dependent protein kinase II (CaM kinase II) (Rattus norvegicus) (UniProt P11275+P08413+P15791+P11730); assay: Protein Serine/Threonine Kinase, Ca2+/Calmodulin-Dep.II Eurofins-Panlabs enzyme assay; conditions: Compound concentration 10.0 uM
[19] = molecular target: Glycogen synthase kinase-3 beta (Homo sapiens) (UniProt P49841); assay: Protein Serine/Threonine Kinase, GSK-3β Eurofins-Panlabs enzyme assay; parameters: substrate with concentration; conditions: Compound concentration 10.0 uM
[20] = molecular target: Glucocorticoid receptor (Homo sapiens) (UniProt P04150); assay: Glucocorticoid Eurofins-Panlabs radioligand binding assay; conditions: Compound concentration 10.0 uM
Glucocorticoid receptor (Homo sapiens), sequence (P04150 whole entry): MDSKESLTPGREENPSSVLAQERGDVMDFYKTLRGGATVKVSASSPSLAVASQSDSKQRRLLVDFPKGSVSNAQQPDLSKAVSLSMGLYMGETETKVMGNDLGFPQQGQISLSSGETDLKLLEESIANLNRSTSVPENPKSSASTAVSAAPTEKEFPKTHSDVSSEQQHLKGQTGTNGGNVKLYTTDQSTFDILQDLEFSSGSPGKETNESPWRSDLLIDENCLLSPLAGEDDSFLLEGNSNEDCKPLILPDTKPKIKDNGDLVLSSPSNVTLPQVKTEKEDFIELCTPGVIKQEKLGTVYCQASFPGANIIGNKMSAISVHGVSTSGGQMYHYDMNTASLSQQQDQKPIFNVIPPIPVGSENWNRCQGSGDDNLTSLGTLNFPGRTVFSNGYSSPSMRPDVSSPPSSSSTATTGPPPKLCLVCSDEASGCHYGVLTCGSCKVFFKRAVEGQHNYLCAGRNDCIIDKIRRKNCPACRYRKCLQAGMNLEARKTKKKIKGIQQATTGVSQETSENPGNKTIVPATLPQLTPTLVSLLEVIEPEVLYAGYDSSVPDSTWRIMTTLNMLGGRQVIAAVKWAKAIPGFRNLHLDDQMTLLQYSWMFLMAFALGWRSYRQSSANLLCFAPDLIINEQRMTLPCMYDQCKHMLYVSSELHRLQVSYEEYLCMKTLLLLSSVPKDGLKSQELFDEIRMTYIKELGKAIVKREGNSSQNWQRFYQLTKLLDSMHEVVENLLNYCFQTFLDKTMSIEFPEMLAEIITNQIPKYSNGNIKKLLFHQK

[21] = molecular target: T3, Muscarinic acetylcholine receptor M2 (Homo sapiens) (UniProt P08172); assay: Muscarinic M2 Eurofins-Panlabs radioligand binding assay; conditions: Compound concentration 10.0 uM
T3 sequence (whole entry): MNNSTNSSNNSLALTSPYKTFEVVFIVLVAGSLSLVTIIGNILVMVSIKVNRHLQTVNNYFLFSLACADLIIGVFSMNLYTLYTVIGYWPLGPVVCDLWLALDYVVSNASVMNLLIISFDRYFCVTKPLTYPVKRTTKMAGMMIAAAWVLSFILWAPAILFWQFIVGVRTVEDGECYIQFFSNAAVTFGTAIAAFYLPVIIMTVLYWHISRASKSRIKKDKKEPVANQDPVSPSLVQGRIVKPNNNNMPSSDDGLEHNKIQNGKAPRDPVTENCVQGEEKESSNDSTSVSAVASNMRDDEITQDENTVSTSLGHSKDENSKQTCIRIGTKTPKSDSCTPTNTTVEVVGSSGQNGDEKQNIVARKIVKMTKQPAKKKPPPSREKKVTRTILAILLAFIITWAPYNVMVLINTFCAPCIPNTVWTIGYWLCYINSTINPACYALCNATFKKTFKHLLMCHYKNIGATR

[22] = molecular target: Mu-type opioid receptor (Homo sapiens) (UniProt P35372); conditions: Compound concentration 10.0 uM
[23] = molecular target: Histamine H1 receptor (Homo sapiens) (UniProt P35367); conditions: Compound concentration 10.0 uM
Histamine H1 receptor (Homo sapiens), sequence (P35367 whole entry): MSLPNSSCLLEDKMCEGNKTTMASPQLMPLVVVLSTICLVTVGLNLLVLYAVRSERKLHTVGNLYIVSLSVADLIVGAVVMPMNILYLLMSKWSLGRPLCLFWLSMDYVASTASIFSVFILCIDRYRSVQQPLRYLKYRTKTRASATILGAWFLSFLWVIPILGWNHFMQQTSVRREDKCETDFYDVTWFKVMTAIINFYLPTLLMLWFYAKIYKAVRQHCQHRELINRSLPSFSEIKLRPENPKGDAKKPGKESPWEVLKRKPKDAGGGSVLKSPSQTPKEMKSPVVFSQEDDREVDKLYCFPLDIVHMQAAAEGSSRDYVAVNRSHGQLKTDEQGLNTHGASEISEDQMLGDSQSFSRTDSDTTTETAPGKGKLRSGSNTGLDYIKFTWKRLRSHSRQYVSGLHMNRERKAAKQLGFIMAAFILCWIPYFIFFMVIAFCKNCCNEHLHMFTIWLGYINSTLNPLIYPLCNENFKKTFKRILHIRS

[24] = molecular target: Histamine H3 receptor (Homo sapiens) (UniProt Q9Y5N1); conditions: Compound concentration 10.0 uM
Histamine H3 receptor (Homo sapiens), sequence (Q9Y5N1 whole entry): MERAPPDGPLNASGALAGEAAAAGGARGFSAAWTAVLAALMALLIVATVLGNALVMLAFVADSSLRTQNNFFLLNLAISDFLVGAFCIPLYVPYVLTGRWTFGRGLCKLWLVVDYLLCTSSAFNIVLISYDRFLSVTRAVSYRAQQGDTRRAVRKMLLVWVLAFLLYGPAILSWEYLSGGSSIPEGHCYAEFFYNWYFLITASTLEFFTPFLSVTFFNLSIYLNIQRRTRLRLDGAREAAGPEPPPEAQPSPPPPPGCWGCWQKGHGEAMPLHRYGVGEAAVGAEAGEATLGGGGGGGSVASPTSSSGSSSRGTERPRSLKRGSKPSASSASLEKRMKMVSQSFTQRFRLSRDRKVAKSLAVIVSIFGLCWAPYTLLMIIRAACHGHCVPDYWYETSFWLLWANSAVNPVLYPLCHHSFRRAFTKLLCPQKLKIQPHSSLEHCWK

[25] = molecular target: Alpha-2A adrenergic receptor (Homo sapiens) (UniProt P08913); conditions: Compound concentration 10.0 uM
Alpha-2A adrenergic receptor (Homo sapiens), sequence (P08913 whole entry): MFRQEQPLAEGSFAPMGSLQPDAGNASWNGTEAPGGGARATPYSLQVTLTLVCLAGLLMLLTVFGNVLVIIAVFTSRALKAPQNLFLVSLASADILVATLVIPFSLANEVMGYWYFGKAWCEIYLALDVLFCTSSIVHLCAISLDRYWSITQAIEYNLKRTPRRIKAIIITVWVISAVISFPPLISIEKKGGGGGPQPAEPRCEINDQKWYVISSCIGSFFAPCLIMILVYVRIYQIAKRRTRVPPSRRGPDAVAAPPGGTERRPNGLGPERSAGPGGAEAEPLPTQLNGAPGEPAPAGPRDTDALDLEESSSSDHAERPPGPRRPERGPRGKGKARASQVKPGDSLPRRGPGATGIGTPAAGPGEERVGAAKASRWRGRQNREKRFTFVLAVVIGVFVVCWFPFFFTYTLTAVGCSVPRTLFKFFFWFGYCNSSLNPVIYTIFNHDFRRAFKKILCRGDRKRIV

[26] = molecular target: Muscarinic acetylcholine receptor M3 (Homo sapiens) (UniProt P20309); conditions: Compound concentration 10.0 uM
[27] = molecular target: Beta-3 adrenergic receptor (Homo sapiens) (UniProt P13945); conditions: Compound concentration 10.0 uM
Beta-3 adrenergic receptor (Homo sapiens), sequence (P13945 whole entry, looked up): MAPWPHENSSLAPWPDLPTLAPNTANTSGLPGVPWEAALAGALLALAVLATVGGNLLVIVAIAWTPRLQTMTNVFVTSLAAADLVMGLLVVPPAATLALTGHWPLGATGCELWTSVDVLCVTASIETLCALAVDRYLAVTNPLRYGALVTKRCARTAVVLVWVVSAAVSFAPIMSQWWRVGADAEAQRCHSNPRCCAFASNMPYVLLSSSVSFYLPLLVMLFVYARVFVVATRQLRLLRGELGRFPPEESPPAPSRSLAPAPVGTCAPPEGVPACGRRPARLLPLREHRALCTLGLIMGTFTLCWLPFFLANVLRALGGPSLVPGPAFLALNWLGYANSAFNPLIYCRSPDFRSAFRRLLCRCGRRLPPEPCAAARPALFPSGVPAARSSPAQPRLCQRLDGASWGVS

[28] = molecular target: T1, D(3) dopamine receptor; conditions: Compound concentration 10.0 uM
[29] = molecular target: Glutamate NMDA receptor (Rattus norvegicus) (UniProt P35439+Q00959+Q00960+Q00961+Q62645+Q8VHN2+Q9R1M7); conditions: Compound concentration 10.0 uM
[30] = molecular target: Sodium-dependent noradrenaline transporter (Homo sapiens) (UniProt P23975); conditions: Compound concentration 10.0 uM
Sodium-dependent noradrenaline transporter (Homo sapiens), sequence (P23975 whole entry): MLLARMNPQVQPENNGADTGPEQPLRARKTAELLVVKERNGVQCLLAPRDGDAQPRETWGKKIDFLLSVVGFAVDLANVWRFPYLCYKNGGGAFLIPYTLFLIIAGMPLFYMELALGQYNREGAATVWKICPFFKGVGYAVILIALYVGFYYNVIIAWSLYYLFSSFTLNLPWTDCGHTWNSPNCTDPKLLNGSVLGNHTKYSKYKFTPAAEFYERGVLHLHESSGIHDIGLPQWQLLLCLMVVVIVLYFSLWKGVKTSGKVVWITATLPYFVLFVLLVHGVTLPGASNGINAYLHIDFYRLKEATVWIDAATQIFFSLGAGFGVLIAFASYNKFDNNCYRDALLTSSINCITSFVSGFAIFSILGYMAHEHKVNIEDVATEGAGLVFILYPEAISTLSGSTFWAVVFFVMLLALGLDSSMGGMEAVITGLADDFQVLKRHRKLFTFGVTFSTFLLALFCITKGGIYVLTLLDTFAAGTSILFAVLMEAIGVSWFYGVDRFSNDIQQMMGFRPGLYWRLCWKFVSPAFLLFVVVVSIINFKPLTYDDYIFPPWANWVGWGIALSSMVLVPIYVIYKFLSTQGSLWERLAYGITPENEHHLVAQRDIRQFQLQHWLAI

[31] = molecular target: D(2) dopamine receptor (Homo sapiens) (UniProt P14416); conditions: Compound concentration 10.0 uM
[32] = organism: Homo sapiens; assay: Cholecystokinin CCK2 (CCKB) Eurofins-Panlabs radioligand binding assay; parameters: ligand concentration 0.072 nM, non-specific ligand with concentration 1 µM Sincalide, incubation time 3 h, incubation temperature 25 °C; conditions: Compound concentration 10.0 uM
[33] = molecular target: T2, GABA-A receptor; anion channel (Rattus norvegicus); conditions: Compound concentration 10.0 uM
[34] = molecular target: Sodium-dependent serotonin transporter (Homo sapiens) (UniProt P31645); conditions: Compound concentration 10.0 uM

T1 sequence (P35462 whole entry): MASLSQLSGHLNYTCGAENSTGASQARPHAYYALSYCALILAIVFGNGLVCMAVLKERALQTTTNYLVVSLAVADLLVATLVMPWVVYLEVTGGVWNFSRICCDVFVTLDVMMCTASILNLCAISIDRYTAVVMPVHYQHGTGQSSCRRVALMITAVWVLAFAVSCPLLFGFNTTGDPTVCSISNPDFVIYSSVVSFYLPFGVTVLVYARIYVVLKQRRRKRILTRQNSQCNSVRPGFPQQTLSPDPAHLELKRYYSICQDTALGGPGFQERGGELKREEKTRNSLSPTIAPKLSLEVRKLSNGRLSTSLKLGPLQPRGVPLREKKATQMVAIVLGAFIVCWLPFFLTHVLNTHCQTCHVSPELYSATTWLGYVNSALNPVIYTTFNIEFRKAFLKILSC

Row | Compound | inhibition [3] [%] | inhibition [4] [%] | inhibition [5] [%] | inhibition [6] [%] | inhibition [7] [%] | inhibition [10] [%] | inhibition [11] [%] | inhibition [12] [%] | inhibition [13] [%] | inhibition [14] [%] | inhibition [20] [%] | inhibition [21] [%] | inhibition [22] [%] | inhibition [23] [%] | inhibition [24] [%] | inhibition [25] [%] | inhibition [27] [%] | inhibition [28] [%] | inhibition [29] [%] | inhibition [30] [%] | further results
1 | Cc1cc(OC2CCS(=O)(=O)CC2)cc(C)c1-c1cccc(COc2ccc(CCC(=O)O)c(F)c2)c1 | 3 | -10 | -9 | 4 | 7 | 4 | 29 | 5 | 20 | 60 | 0 | 4 | 1.32 | 12 | 21.1 | 13 | -5.43 | -7 | 8 | 22 | Ki [1]: 925 nM; Ki [2]: > 10000 nM; pKi [2]: < 5; inhibition [8]: -5%; inhibition [9]: 26%; inhibition [15]: 4%; inhibition [16]: -5%; inhibition [17]: -1%; inhibition [18]: 44%; inhibition [19]: 19%; inhibition [26]: -0.18%; inhibition [31]: -2%
2 | Cc1cc(OC2CCS(=O)(=O)CC2)cc(C)c1-c1cccc(COc2ccc(C(=O)O)c(F)c2)c1 | 8 | 8 | -3 | 2 | -4 | -9 | 3 | -6 | 8 | 28 | 14 | -3 | -7.84 | -2.18 | 6.7 | 13.1 | 6.71 | 4 | 7 | 5 | inhibition [32]: 5%; inhibition [33]: -1%; inhibition [34]: 2%; inhibition [31]: -4%
